# Experimental data reported in US20040029197A1, “Novel human cancer/testis antigen and gene thereof” (priority 2000, published 2004).
# Where no end group is shown, it is not given here.
# Test system: C1R-A24 cells
# Assay: Cytotoxity test (51Cr release) with peptide-stimulated CD8-positive T cells of a cancer patient
# Format: cell-based, human
# Conditions: target C1R-A24 cells added with 1 iM of the peptide, effecter CD8-positive T cells after MLPC twice, six hours, FIG. 8
# Experimental: Peripheral blood of a patient whose D40 gene expression in the tumor tissue was observed by RT-PCR method was multi-layered in Ficoll-Conray solution with specific gravity of 1.082 and the blood was separated to plasma, lymphocyte phase, Ficoll-Conray phase and erythrocyte phase from the top by centrifugation of 1500 rpm for 30 min. The lymphocyte phase was collected and cultured for a day in AIM-V, a serum-free medium, after which the cell population adhered to the bottom of the culture flask and the suspended cell population were separated by gently shaking the flask. The adhered cell population is a cell population called PBMC (peripheral blood mononuclear cells) which includes B cells, macrophages and dendritic cells that are so-called antigen-presenting cells (APC). […] The APC after the culture were treated with radioactivity in order to get rid of their proliferation ability.
# On the other hand, the suspended cell population mainly contains T cells and these suspended cells were cultured in AIM−V+IL−2 for four days. […] These CD8-positive T cells were added to APC, which have been treated with radioactivity as mentioned above, and cultured for two days. […] Then the radioactivity of ^51Cr released from the target C1R-A24 cells were measured and the cytotoxity activity (%) was calculated. […]
sequence,measurement,value
"SYTIEINHRL [SYTIEINHRL, Ser-Tyr-Thr-Ile-Glu-Ile-Asn-His-Arg-Leu]",cytotoxic activity of T cells derived from peripheral blood of a cancer patient,specifically injured target C1R-A24 cells
